Source: US10584124B2, “Crystalline forms” (Array BioPharma Inc., priority 2017, dated 2020)

Tests used:
[1] = Isothermic (25° C.) DVS analysis of salts of the compound of Formula I; assay type: physicochemical; settings: for Mass gain by DVS: 80% relative humidity, 25° C.; for Hygroscopicity by DVS (in words): isothermic 25° C.; for Deliquescence upon removal from the DVS chamber: sample remained a free-flowing powder
From the text: (FIG. 16D). […] Some hysteresis was observed. […] (FIG. 16C). […] (FIG. 16D).
(FIG. 18A). […] (FIG. 18B). […] Some hysteresis was observed. […] An overlay of FTIR spectra of the L- and D-malic acid salts is shown in FIG. 18F. ^1H NMR spectra of the L- and D-malic salts in DMSO-d^6 are shown in FIG. 18G-18H, respectively.

[2] = Solubility test of the D-malic acid salt (room temperature, 60° C., 70° C.); assay type: physicochemical; settings: for Solids dissolve at 70° C.?: 70° C. for approximately 3.0 hours
[3] = Stability screening of freebase and selected salts of Formula I, 40° C. and 75% RH, weekly HPLC over 4 weeks; settings: for Absolute % change: 40° C. and 75% RH, T = 0 to 4 weeks; for Stability, HPLC analysis, T = 1 week / Stability, HPLC analysis, T = 2 weeks / Stability, HPLC analysis, T = 3 weeks / Stability, HPLC analysis, T = 4 weeks / Stability, HPLC analysis, T = 0: stored at 40° C. and 75% RH
[4] = Solubility test of the HBr salt of the compound of Formula I; assay type: physicochemical; settings: for Appearance at 25° C. after 2 h / Solids dissolve at 65° C.?: HBr salt; for Appearance at 25° C. after 2 h: 10-20 mg in 1 mL; for Solids dissolve at 65° C.?: 65° C. for 3 hours
[5] = Solubility screening of the compound of Formula IV (freebase) in solvent mixtures; assay type: physicochemical; settings: approximately 25° C.

SMILES: COc1ccc(CN2CCN(c3ccc(-c4cc(-c5cnn(C)c5)cn5ncc(C#N)c45)cn3)CC2)cn1.O=C(O)C[C@@H](O)C(=O)O [D-malic acid salt]
- Mass gain by DVS [1]: approximately 2.8%
- Hygroscopicity by DVS (in words) [1]: hygroscopic
- Deliquescence upon removal from the DVS chamber [1]: no observable deliquescence
- Solids dissolve at 60° C.? ([2]; 60° C. for 3.0 hours, solvent 0.1M HCl, Yes): Yes (>15 mg/mL)
- Solids dissolve at 60° C.? ([2]; 60° C. for 3.0 hours, solvent 2-methyl THF): No
- Solids dissolve at 60° C.? ([2]; 60° C. for 3.0 hours, solvent ACN): No
- Solids dissolve at 60° C.? ([2]; 60° C. for 3.0 hours, solvent Acetone): No
- Solids dissolve at 60° C.? ([2]; 60° C. for 3.0 hours, solvent DCE): No
- Solids dissolve at 60° C.? ([2]; 60° C. for 3.0 hours, solvent DMSO, Yes): Yes (>40 mg/mL)
- Solids dissolve at 60° C.? ([2]; 60° C. for 3.0 hours, solvent EtOAc): No
- Solids dissolve at 60° C.? ([2]; 60° C. for 3.0 hours, solvent EtOH): No
- Solids dissolve at 60° C.? ([2]; 60° C. for 3.0 hours, solvent IPA): No
- Solids dissolve at 60° C.? ([2]; 60° C. for 3.0 hours, solvent MEK): No
- Solids dissolve at 60° C.? ([2]; 60° C. for 3.0 hours, solvent MTBE): No
- Solids dissolve at 60° C.? ([2]; 60° C. for 3.0 hours, solvent MeOH): No
- Solids dissolve at 60° C.? ([2]; 60° C. for 3.0 hours, solvent Toluene): No
- Solids dissolve at 60° C.? ([2]; 60° C. for 3.0 hours, solvent iPAc): No
- Solids dissolve at 60° C.? ([2]; 60° C. for 3.0 hours, solvent water): No
- Solids dissolve at 70° C.? ([2]; solvent 2-methyl THF): No
- Solids dissolve at 70° C.? ([2]; solvent ACN): No
- Solids dissolve at 70° C.? ([2]; solvent DCE): No
- Solids dissolve at 70° C.? ([2]; solvent DMSO, Yes): Yes (>56 mg/mL)
- Solids dissolve at 70° C.? ([2]; solvent EtOAc): No
- Solids dissolve at 70° C.? ([2]; solvent EtOH): No
- Solids dissolve at 70° C.? ([2]; solvent IPA): No
- Solids dissolve at 70° C.? ([2]; solvent MEK): No
- Solids dissolve at 70° C.? ([2]; solvent MTBE): No
- Solids dissolve at 70° C.? ([2]; solvent Toluene): No
- Solids dissolve at 70° C.? ([2]; solvent iPAc): No
- Solids dissolve at 70° C.? ([2]; solvent water): No
- Solids dissolve at 60° C.? ([2]; solvent THF, cell says At 65° C.): ~10 mg/mL
- Absolute % change [3]: 0.6%
- Stability, HPLC analysis, T = 1 week [3]: 97.6%
- Stability, HPLC analysis, T = 2 weeks [3]: 97.4%
- Stability, HPLC analysis, T = 3 weeks [3]: 97.2%
- Stability, HPLC analysis, T = 4 weeks [3]: 97.1%
- Stability, HPLC analysis, T = 0 [3]: 97.7%

SMILES: COc1ccc(CN2CCN(c3ccc(-c4cc(-c5cnn(C)c5)cn5ncc(C#N)c45)cn3)CC2)cn1 [Freebase I]
- Absolute % change [3]: 0.4%
- Stability, HPLC analysis, T = 1 week [3]: 97.3%
- Stability, HPLC analysis, T = 2 weeks [3]: 97.1%
- Stability, HPLC analysis, T = 3 weeks [3]: 97.1%
- Stability, HPLC analysis, T = 4 weeks [3]: 96.9%
- Stability, HPLC analysis, T = 0 [3]: 97.3%

SMILES: Br.COc1ccc(CN2CCN(c3ccc(-c4cc(-c5cnn(C)c5)cn5ncc(C#N)c45)cn3)CC2)cn1 [HBr salt]
- solubility ([4]; DMSO): 1.95 mg/mL
- Appearance at 25° C. after 2 h ([4]; solvent 2-methyl THF): Solids
- Appearance at 25° C. after 2 h ([4]; solvent ACN): Solids
- Appearance at 25° C. after 2 h ([4]; solvent Acetone): Solids
- Appearance at 25° C. after 2 h ([4]; solvent DCE): Solids
- Appearance at 25° C. after 2 h ([4]; solvent DCM): Solids
- Appearance at 25° C. after 2 h ([4]; solvent DMSO): Solids
- Appearance at 25° C. after 2 h ([4]; solvent EtOAc): Solids
- Appearance at 25° C. after 2 h ([4]; solvent EtOH): Solids
- Appearance at 25° C. after 2 h ([4]; solvent IPA): Solids
- Appearance at 25° C. after 2 h ([4]; solvent MEK): Solids
- Appearance at 25° C. after 2 h ([4]; solvent MTBE): Solids
- Appearance at 25° C. after 2 h ([4]; solvent MeOH): Solids
- Appearance at 25° C. after 2 h ([4]; solvent THF): Solids
- Appearance at 25° C. after 2 h ([4]; solvent iPAc): Solids
- Appearance at 25° C. after 2 h ([4]; solvent water): Solids
- Solids dissolve at 65° C.? ([4]; solvent 2-methyl THF): No
- Solids dissolve at 65° C.? ([4]; solvent ACN): No
- Solids dissolve at 65° C.? ([4]; solvent Acetone): No
- Solids dissolve at 65° C.? ([4]; solvent DCE): No
- Solids dissolve at 65° C.? ([4]; solvent DCM): No
- Solids dissolve at 65° C.? ([4]; solvent DMSO): No
- Solids dissolve at 65° C.? ([4]; solvent EtOAc): No
- Solids dissolve at 65° C.? ([4]; solvent EtOH): No
- Solids dissolve at 65° C.? ([4]; solvent IPA): No
- Solids dissolve at 65° C.? ([4]; solvent MEK): No
- Solids dissolve at 65° C.? ([4]; solvent MTBE): No
- Solids dissolve at 65° C.? ([4]; solvent MeOH): No
- Solids dissolve at 65° C.? ([4]; solvent THF): No
- Solids dissolve at 65° C.? ([4]; solvent iPAc): No
- Solids dissolve at 65° C.? ([4]; solvent water): No
- Solubility (in words) ([4]; solvent systems examined): low solubility
- Solids upon heating to 65° C. ([4]; solvent systems examined, 65° C.): did not dissolve

SMILES: COc1ccc(CN2CCN(c3ccc(-c4cc(-c5cnn(C)c5)cn5ncc(C#N)c45)cn3)CC2)cn1.Cl [HCl salt]
- Mass gain by DVS [1]: approximately 5%
- Hygroscopicity by DVS (in words) [1]: hygroscopic
- Deliquescence upon removal from the DVS chamber [1]: no observable deliquescence
- Absolute % change [3]: 0.0%
- Stability, HPLC analysis, T = 1 week [3]: 99.3%
- Stability, HPLC analysis, T = 2 weeks [3]: 99.3%
- Stability, HPLC analysis, T = 3 weeks [3]: 99.3%
- Stability, HPLC analysis, T = 4 weeks [3]: 99.3%
- Stability, HPLC analysis, T = 0 [3]: 99.3%

SMILES: CC(C)(O)COc1cc(-c2ccc(N3CCC(O)(Cc4ccccn4)CC3)nc2)c2c(C#N)cnn2c1 [compound of Formula IV, 6-(2-hydroxy-2-methylpropoxy)-4-(6-(4-hydroxy-4-(pyridin-2-ylmethyl)piperidin-1-yl)pyridin-3-yl)pyrazolo[1,5-a]pyridine-3-carbonitrile]
- solubility ([5]; Water): 0.007 mg/mL
- solubility ([5]; aqueous with cosolvent or surfactant or cyclodextrin, Acetone:water (1:1)): 45.8 mg/mL
- solubility ([5]; aqueous with cosolvent or surfactant or cyclodextrin, EtOH:water (1:1)): 51 mg/mL
- solubility ([5]; organic solvent or mixture, ACN): 21.2 mg/mL
- solubility ([5]; organic solvent or mixture, Acetone): 42.9 mg/mL
- solubility ([5]; organic solvent or mixture, Acetone:heptane (1:1)): 6.1 mg/mL
- solubility ([5]; organic solvent or mixture, Butanol): 16.6 mg/mL
- solubility ([5]; organic solvent or mixture, Chloroform): > 59 mg/mL
- solubility ([5]; organic solvent or mixture, Chloroform:heptane (1:1)): 11.7 mg/mL
- solubility ([5]; organic solvent or mixture, DCM): > 70 mg/mL
- solubility ([5]; organic solvent or mixture, EtOH:water (90:10)): 55 mg/mL
- solubility ([5]; organic solvent or mixture, Ethanol): 5.2 mg/mL
- solubility ([5]; organic solvent or mixture, Ethyl acetate): 21 mg/mL
- solubility ([5]; organic solvent or mixture, IPA): 7 mg/mL
- solubility ([5]; organic solvent or mixture, MEK): 30.7 mg/mL
- solubility ([5]; organic solvent or mixture, MTBE): 5.5 mg/mL
- solubility ([5]; organic solvent or mixture, Methanol): > 74 mg/mL
- solubility ([5]; organic solvent or mixture, THF): > 37 mg/mL
- solubility ([5]; organic solvent or mixture, THF:heptane (30:70)): 0.6 mg/mL
- solubility ([5]; organic solvent or mixture, p-dioxane): > 62 mg/mL
